Assay results reported in PubChem BioAssay (NCI).
Values joined by “and” are separate entries in the source; they are usually repeats but may differ in a detail not shown here. Identical values can stand only once.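 Tested at 5 concentrations; 48 h exposure; 96-well plates; endpoints linearly interpolated, else capped at highest concentration. At the GI50, growth is halved. TGI marks complete inhibition of growth.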

How the values were obtained:
Experiment in all cases: growth of human tumour cells (NCI), 48 h
A498 renal = test system: A498 renal
CAKI-1 renal = test system: CAKI-1 renal
DU-145 prostate = test system: DU-145 prostate
MCF7 breast = test system: MCF7 breast
MDA-MB-231 breast = test system: MDA-MB-231 breast
MDA-MB-435 = test system: MDA-MB-435
MOLT-4 leukemia = test system: MOLT-4 leukemia
SK-MEL-2 melanoma = test system: SK-MEL-2 melanoma
SK-MEL-28 melanoma = test system: SK-MEL-28 melanoma
UACC-62 melanoma = test system: UACC-62 melanoma

SMILES | GI50 (A498 renal) | TGI (A498 renal) | GI50 (CAKI-1 renal) | TGI (CAKI-1 renal) | GI50 (DU-145 prostate) | TGI (DU-145 prostate) | GI50 (MCF7 breast) | TGI (MCF7 breast) | GI50 (MDA-MB-231 breast) | TGI (MDA-MB-231 breast) | GI50 (MDA-MB-435) | TGI (MDA-MB-435) | GI50 (MOLT-4 leukemia) | TGI (MOLT-4 leukemia) | GI50 (SK-MEL-2 melanoma) | TGI (SK-MEL-2 melanoma) | GI50 (SK-MEL-28 melanoma) | TGI (SK-MEL-28 melanoma) | GI50 (UACC-62 melanoma) | TGI (UACC-62 melanoma)
COc1ccc2[nH]c(O)c(/C=c3/ccc4c(c3)N=C(c3ccc(F)cc3)N=4)c2c1 | 1.46 µM | 4.28 µM | 7.12 µM | > 100 µM | 2.23 µM | 6.87 µM | 4.53 µM | 93.3 µM | 2.25 µM | 6.04 µM | 3.2 µM | 40 µM | 13.9 µM | > 100 µM | 5.72 µM | 44.8 µM | 4.34 µM | 28.8 µM | 6.11 µM | > 100 µM
Nc1ncnc2nn(C3OC(CO)C(O)C3O)nc12 (configuration not stated) | – | > 59.6 µM | – | > 100 µM | – | > 45.4 µM | – | > 62.3 µM | – | > 25.2 µM | – | > 90 µM | – | > 66.2 µM | – | 17.5 µM | – | > 100 µM | – | > 100 µM
COc1ccc(Oc2cc(NCCC(F)(F)F)c3ncc(-c4ccc(C(=O)NC5CC5)c(C)c4)n3n2)c(F)c1F | – | 25.7 µM | 0.365 µM | > 100 µM | 0.423 µM | > 100 µM | 0.822 µM | > 100 µM | 2.16 µM | > 100 µM | 2.64 µM | > 100 µM | 2.03 µM | > 100 µM | 0.552 µM | 26.6 µM | 4.94 µM | 59.1 µM | 0.681 µM | 85.5 µM
COc1ccc2nccc(/C=C/c3ccnc4ccc(OC)cc34)c2c1 | > 36.9 µM | > 83.9 µM | > 82.4 µM | > 100 µM | > 42.4 µM | > 63.4 µM | 2.39 µM | > 38.5 µM | > 41.5 µM | > 61.6 µM | > 79.5 µM | > 100 µM | > 55.1 µM | > 100 µM | > 53.6 µM | > 78.4 µM | 24.6 µM | 73.8 µM | > 77.4 µM | > 100 µM
CC/C=C\C[C@H](O)C/C=C1/C(=O)C=C[C@@H]1C/C=C\CCCC(=O)NC | 2.34 µM | 5.12 µM | 1.38 µM | 4.08 µM | 2.73 µM | 12.7 µM | 0.455 µM | 10.7 µM | 4.24 µM | 14.1 µM | 1.73 µM | 6.64 µM | 2.4 µM | 11.3 µM | 2.24 µM | 6.35 µM | 1.69 µM | 3.6 µM | 1.37 µM | 3.5 µM
Cc1ccc(C)c2c(N=Nc3ccccc3[N+](=O)[O-])c(O)[nH]c12 | – | > 100 µM | – | > 100 µM | – | > 100 µM | – | > 100 µM | – | > 100 µM | – | > 100 µM | – | > 100 µM | – | > 100 µM | – | > 100 µM | – | > 100 µM
Clc1ccc(N2CCC(N3CCCC3)CC2)cc1-c1nc2ccccc2[nH]1 | 12.8 µM | 27.8 µM | 19.3 µM | 50 µM | 36.7 µM | > 100 µM | 15.8 µM | 30.7 µM | 17.1 µM | 32.5 µM | 17.7 µM | 35.7 µM | 23.2 µM | 67.7 µM | 19.3 µM | 36.6 µM | 16.5 µM | 31.2 µM | 16.2 µM | 32.1 µM
CC(=O)c1cccc(NC(=O)c2ccc(NC3=C(Cl)C(=O)N(Cc4ccccc4)C3=O)cc2)c1 | 19.6 µM | 60.4 µM | 1.61 µM | 3.05 µM | 13.4 µM | 34.2 µM | 9.34 µM | > 100 µM | 15 µM | 38.3 µM | 11.8 µM | 30.1 µM | 2.21 µM | > 100 µM | 2.38 µM | 11.5 µM | 25.6 µM | > 100 µM | 13.8 µM | 29.3 µM
COc1ccc(C(=O)OC2C(OC3C(O)COC(O[C@H]4C[C@H]5[C@@H]6CC=C7C[C@@H](O)CC[C@]7(C)[C@H]6CC[C@]5(C)[C@H]4[C@H](C)C(=O)CCC(C)C)C3OC(C)=O)OCC(O)C2O)cc1 (some centres not stated) | < 0.003 µM | < 0.003 µM | < 0.003 µM | 0.349 µM | < 0.003 µM | 24.3 µM | < 0.003 µM | 0.532 µM | 0.0313 µM | 4.55 µM | < 0.003 µM | 0.0435 µM | < 0.003 µM | < 0.003 µM | < 0.003 µM | 0.0101 µM | < 0.003 µM | < 0.003 µM | < 0.003 µM | < 0.003 µM
CCN(CC)CCCNc1[nH]ncc2c(C)c3nc4ccccc4c3cc12 | – | 4.73 µM | 4.07 µM | 18.1 µM and 17.7 µM | 0.555 µM | 11.2 µM and 5.62 µM | 0.219 µM | 0.756 µM and 5.9 µM | 0.709 µM | 2.65 µM and 2.51 µM | 0.754 µM | 2.12 µM and 4 µM | 0.0288 µM | 0.183 µM and 0.0447 µM | 1.59 µM | 3.11 µM and 7.17 µM | 2.83 µM | 13.9 µM and 4.06 µM | – | 1.96 µM and 2.08 µM
O=C1N[C@H]2[C@H](O)[C@H](O)[C@@H](O)[C@H](O)[C@@H]2c2cc3c(c(O)c21)OCO3 | 0.23 µM and 0.796 µM | – | 0.682 µM | – | 0.0101 µM | 0.0963 µM and 0.102 µM | 0.0208 µM | – | – | 0.091 µM | 0.0249 µM | 1.3 µM and 0.14 µM | 0.196 µM and 0.575 µM | – | 0.266 µM | – | 0.308 µM and 0.382 µM | – | 0.246 µM and 0.412 µM | –
Oc1ccccc1C=Nc1ccccc1N=Cc1ccccc1O.[Cu+2] | 7.66 µM | 20.8 µM | 2.74 µM | 12.4 µM | 5.13 µM | 18.5 µM | 2.34 µM | 14.1 µM | 6.08 µM | 21.2 µM | 4.38 µM | 17 µM | 3.84 µM | > 100 µM | 5.81 µM | 19.5 µM | 10.5 µM | 23.2 µM | 3.13 µM | 14.2 µM
CCOC(=O)c1nc2cc(C(F)(F)F)ccc2[n+]([O-])c1C | > 100 µM | > 100 µM | > 100 µM | > 100 µM | > 100 µM | > 100 µM | > 100 µM | > 100 µM | > 100 µM | > 100 µM | > 100 µM | > 100 µM | > 100 µM | > 100 µM | > 100 µM | > 100 µM | > 100 µM | > 100 µM | > 100 µM | > 100 µM
CN1CCN(c2ccc(C(=O)Nc3cccc(C#Cc4cccc5[nH]nc(N)c45)c3)cc2C(F)(F)F)CC1 | 2.22 µM | 6.76 µM | 0.668 µM | 1.51 µM | 1.08 µM | 3.2 µM | 0.582 µM | 1.14 µM | 0.568 µM | 1.35 µM | 0.61 µM | 1.19 µM | 0.645 µM | 1.57 µM | 1.7 µM | 5.49 µM | 0.631 µM | 1.25 µM | 0.665 µM | 1.62 µM
COC(=O)[C@@H](OC)[C@@H]1Cc2cc3cc(OC4CC(OC5CC(O)C(O)C(C)O5)C(O)C(C)O4)c(C)c(O)c3c(O)c2C(=O)[C@H]1OC1CC(OC2CC(OC3CC(C)(O)C(O)C(C)O3)C(O)C(C)O2)C(O)C(C)O1 (some centres not stated) | 0.0277 µM | 0.0717 µM | 0.0425 µM | – | 0.0433 µM | > 16.5 µM | 0.0275 µM | > 16.5 µM | 0.0479 µM | 0.148 µM | 0.0274 µM | 0.0605 µM | 0.0453 µM | – | 0.0355 µM | 0.0777 µM | 0.0312 µM | 0.106 µM | 0.0194 µM | 0.0469 µM
Cn1c2ccccc2c2nnc(NNCc3ccccn3)nc21 | 0.415 µM | 12.3 µM | 0.248 µM | 1.63 µM | 0.312 µM | 11 µM | 0.372 µM | 14.5 µM | 1.03 µM | 18 µM | 0.555 µM | 14.5 µM | 0.38 µM | 12.6 µM | 5.17 µM | 33 µM | 0.675 µM | 11.2 µM | 0.268 µM | 0.98 µM
COC(=O)/C(=C\c1c(-c2ccccc2)[nH]c2ccccc12)S(C)(=O)=O | 6.56 µM | 21.3 µM | 1.83 µM | 82.6 µM | 2.48 µM | 6.11 µM | 2.92 µM | 18.2 µM | 2.39 µM | 17.7 µM | 0.671 µM | 4.77 µM | 4.72 µM | > 100 µM | 11.8 µM | 28.4 µM | 6.04 µM | 21.9 µM | 3.34 µM | 17 µM
CC12CCC(O)CC1=CCC1C2CCC2(C)C(c3cccnc3)=CCC12 (configuration not stated) | > 100 µM | > 100 µM | > 100 µM | > 100 µM | > 100 µM | > 100 µM | > 100 µM | > 100 µM | > 100 µM | > 100 µM | 83.7 µM | > 100 µM | > 100 µM | > 100 µM | > 100 µM | > 100 µM | > 100 µM | > 100 µM | > 100 µM | > 100 µM
C#C/C=C/CC1OC(C(Br)CC)CC(Br)C2CC1O2 (configuration not stated) | – | > 100 µM | – | > 100 µM | – | > 100 µM | – | > 100 µM | – | > 100 µM | – | > 100 µM | – | > 100 µM | – | > 100 µM | – | > 100 µM | – | > 100 µM
Cc1ccc(C(=O)N=Nc2c(O)[nH]c3ccc(Cl)cc23)cc1 | 35.3 µM | > 50 µM | 16.1 µM | 45.3 µM | 46.9 µM | > 50 µM | 13.5 µM | > 50 µM | 18.7 µM | > 50 µM | 13 µM | 40.6 µM | 3.2 µM | > 50 µM | > 50 µM | > 50 µM | 41.8 µM | > 50 µM | 9.3 µM | 23.1 µM
C[C@@](O)(/C=C/[C@H]1CC=CC(=O)O1)[C@@H](C[C@@H](O)\C=C/C=C\C=C\CO)OP(=O)(O)O | 40.2 µM | 83.8 µM and 60.3 µM | – | 4.66 µM | – | 32.5 µM | 5.01 µM | 13.9 µM and 50.4 µM | – | 138 µM | – | 11.7 µM | 13.4 µM and 3.71 µM | – | 19.8 µM | 65.2 µM and 42.4 µM | 8.69 µM | 38.8 µM and 25.3 µM | 6.51 µM | 28 µM and 11 µM
